Patent publication US20120322685A1, “DEVICE FOR COLLECTING AND ANALYZING MIGRATORY TUMOR CELLS” (priority 2010, published 2012)

Experiments:
[1] = system: Human lung tumors heterotransplanted into nude mice; assay: in vivo invasion assay, chemotaxis-based cell collection into needles, human lung tumor heterotransplants; details: needles containing 50 nM Heregulin; first mouse to mouse transplant
Source text: Therefore, an in vivo invasion assay was created in which three needles (microneedles ˜100 um in diameter) containing matrigel and various growth factors are placed independently with microscopic precision, using a specially designed micromanipulator guided device, into the primary tumor for chemotaxis-based cell collection in vivo [3]. One needle contains control conditions (usually no ligand or an inhibitor), and the other two are identical. […] Fetal serum was also sufficient but this required signaling by the EGF receptor again implicating the EGF receptor. Furthermore, CSF-1 was also sufficient for cell collection. […] Migration and collection was directly correlated with macrophage density in the mammary gland, stage of progression to malignancy (only background levels of cells, <200 cells, were collected from normal mammary glands and adenoma stage tumors compared with carcinoma stage tumors, ˜1000 cells) and the presence of CSF1 in the tumor was required for cell collection as shown using mouse models with either decreased (op/op) or increased (tet on CSF-1) CSF-1 expression that regulates macrophage recruitment to the mammary gland and metastasis. […] Furthermore, the motility of tumor cells and intravasation occurs preferentially in association with macrophages. […]

[2] = system: MDA-MB-231 derived mammary tumors; assay: in vivo invasion assay, MDA-MB-231 derived mammary tumors; design: species or system human tumor xenograft in SCID mice tumor xenograft in SCID mice; details: MDA-MB-231 tumors in mammary fat pads of SCID mice; FIG. 1C
Source text: Therefore, an in vivo invasion assay was created in which three needles (microneedles ˜100 um in diameter) containing matrigel and various growth factors are placed independently with microscopic precision, using a specially designed micromanipulator guided device, into the primary tumor for chemotaxis-based cell collection in vivo [3]. One needle contains control conditions (usually no ligand or an inhibitor), and the other two are identical. […] Fetal serum was also sufficient but this required signaling by the EGF receptor again implicating the EGF receptor. Furthermore, CSF-1 was also sufficient for cell collection. […]
Mammary tumors derived by injecting the human cell line MDA-MB-231 into a mammary fat pad of mice were used in the in vivo invasion assay. […] The involvement of EGF and CSF1 in carcinoma cell invasion has been analyzed from primary breast tumors derived from the injection of MDA-MB-231 cells into the mammary fat pads of SCID mice. […]

Question: For Heregulin [reference compound], which “fold more cells collected in needles as compared to needles with buffer alone” value [1] is on record?
Answer: 2 fold

Question: With COc1cc2ncnc(Nc3ccc(F)c(Cl)c3)c2cc1OCCCN1CCOCC1 [Iressa] as the compound, how does the “CSF1-mediated collection of invasive cells (tumor cell and macrophage invasion)” value [2] read?
Answer: inhibited

Question: What about the “EGF-mediated collection of invasive cells (tumor cell and macrophage invasion)” value [2] of the same compound?
Answer: inhibited
